The CC50 is the concentration that lowers cell viability or growth by half.

Activity calls are given as the source filed them.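 How the source made its calls: active means cell viability below 70% of untreated cell signal at any tested dose; inactive means the rest.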

CC50 data for seven compounds are collected here from PubChem BioAssay AID540338 (Southern Research Specialized Biocontainment Screening …, 2011).

The subject of the assay is HEp-2 viability, luminescence (CellTiter-Glo). The experiment in a line: HEp-2 cell cytotoxicity, dose response, cytotoxicity control for RSV antiviral project, synthesized compounds, set 12 (AID 540338).
For `COCCCNC(=O)c1ccc(Cn2c(=O)c3ccccc3n(Cc3cccnc3)c2=O)cc1`, the CC50 was 8 µM.
Turning to `COCCCNC(=O)c1ccc(Cn2c(=O)c3ccccc3n(Cc3ccccn3)c2=O)cc1`, the CC50 is 16 µM.
`COCCCNC(=O)c1ccc(Cn2c(=O)c3ccccc3n(CC3CCCCC3)c2=O)cc1`: the CC50 was > 200 µM (inactive).
For the compound `COCCCNC(=O)c1ccc(Cn2c(=O)c3ccccc3n(Cc3ccc(C)cc3)c2=O)cc1`, the CC50 is 69 µM.
Next, `COCCCNC(=O)c1ccc(Cn2c(=O)c3ccccc3n(CCc3ccc(C(F)(F)F)cc3)c2=O)cc1`: 116 µM; `COCCCNC(=O)c1ccc(Cn2c(=O)c3ccccc3n(CCc3ccc(Br)cc3)c2=O)cc1`: below 1.6 µM.
Next, `COCCCNC(=O)c1ccc(Cn2c(=O)c3ccccc3n(CCc3ccc(C)cc3)c2=O)cc1`: below 1.6 µM.
